Laboratory results reported in US20250082797A1, “Methods for In Vivo Tracking of Cells” (Wisconsin Alumni Research Foundation, priority 2023, published 2025).

System: cell line U937
Assay: Optimization of glycan oxidation conditions, cell viability by trypan blue staining
Assay type: cell-based
Method: Method 2: Conditions for biocompatible oxime ligation and ^89Zr-labeling of monocytes. Reactive aldehydes were generated on the cell surface of the monocytic cell line U937 through sialic acid oxidation with NaIO4. Oxidation conditions were optimized by varying NaIO4 concentration (0.1-10 mM), pH (4.6-7.4), temperature (4 or 37° C.), and incubation time (15 min to 2 h). Subsequently, cells were incubated with AOD (100-500 μM) at room temperature for up to 1 h in the presence of aniline, and cells were washed and resuspended in PBS. Next, AOD-conjugated (5-7×10^6) cells were radiolabeled with ^89Zr (37-74 MBq) at room temperature for 1h, then washed thrice to eliminate unlabeled ^89Zr, and the radiochemical yield was measured by TLC (FIG. 9A-9D). Cell viability was assessed at each step via trypan blue staining (FIG. 8).

## [Na+].[O-][I+3]([O-])([O-])[O-] [sodium periodate]
1 mM, up to 1 hour
  viability of U937 cells after oxidation: over 90%
Tested temperature and reaction times
  effect of glycan oxidation on cell viability, in words: minimal effect on cell viability
